Measured values reported in patent publication US6479474B2, “Dietary calcium as a supplement to vitamin D compound treatment of multiple sclerosis” (Wisconsin Alumni Research Foundation, priority 1999, dated 2002).

What was measured:
[1] = test system: experimental autoimmune encephalomyelitis (EAE) in B10.PL mice; test: EAE induction in B10.PL mice fed 1,25-(OH)2D3 and various dietary calcium: EAE incidence and prevention; type: in vivo; details: for prevention of EAE: 20 mg calcium/100 g diet (low); for incidence of EAE: 20 mg calcium/100 g diet, lower doses that do not raise serum calcium; for times more 1,25-(OH)2D3 needed to prevent EAE in males than females: males vs females
Text: (§1) Animals and Diets. The B10.PL mice were produced in our colony using breeding pairs obtained from Jackson Laboratories (Bar Harbor, Me.). During breeding, the mice were fed Purina diet 5008 Formilab (Richmond, Ind.), containing 100 IU/g of cholecalciferol (vitamin D3). Mice were used for experiments at 6-8 wk of age at which time the females were 18-22 g and the males were 22-26 g. For experiments, all of the mice were fed synthetic diets (Yang, et al., 1993; Smith, et al., 1987) with the modifications described below. For all experiments each mouse was fed 4 g of the experimental diet (completely eaten) and the diets were replaced every 2-3 days for the duration of each experiment. […] Although the experimental diet was devoid of vitamin D, the mice were exposed to normal light and, therefore, were not vitamin D deficient. EAE was induced in all mice one week after the experimental diets were started. For mice with severe symptoms of EAE, food was placed in small dishes on the bottom of the cage. At the end of the experiments, mice were weighed, killed, and bled.
In the first experimental design, male and female mice were fed diets which contained 1 g calcium/100 g diet and EAE was induced. In a second series of experiments groups of 8-12 mice were fed the experimental diet (control treatment) without vitamin D or the experimental diet plus various concentrations of 1,25-(OH)2D3 as indicated. Females were fed 1,25-(OH)2D3 ranging from 0 to 200 ng/d and the males were fed 0 to 800 ng/d. The experimental diet contained one of 3 calcium concentrations; 20 mg (low), 470 mg (medium) or 1 g (high) calcium/100 g diet as indicated. The final experimental design used only male which were fed the control diet or the same diet containing 100 ng 1,25-(OH)2D3/daily. These mice were fed diets, which contained low, medium, or high calcium as indicated. […] All of the procedures described were reviewed and approved by the University of Wisconsin-Madison Research Animal Resources Center Committee Review Board on Sep. 9, 1994 and the protocol number is A-07-3000-A00755-4-08-94.
EAE disease induction. Myelin basic protein (MBP) was isolated from guinea pig spinal cords (Cantorna, et al., 1996). MBP was lyophilized and stored at −20° C. For immunizations, MBP was dissolved in 0.1 mol/L acetic acid at a concentration of 8 g/L (Cantorna, et al., 1996). Ether anesthetized mice were immunized subcutaneously with 0.1 ml of MBP ([…]) emulsified in an equal volume of Complete Freund's Adjuvant (CFA, Difco Laboratories, Detroit, Mich.) containing Mycobacterium tuberculosis H37 Ra. In addition, on the day of immunization and two days later mice were injected i.p. with 200 ng of pertussis toxin (LIST Biological Laboratories, Campbell, Calif.) suspended in sterile saline. […] Male mice were killed on d 21 post-immunization to measure various immune responses. The EAE scoring system was: 0=normal; 1=limp tail; 2=paraparesis with a clumsy gait; 3=hind limb paralysis; 4=hind and fore limb paralysis; 5=moribund.

experimental arthritis = details: literature (Cantorna 1998a); cited from earlier work
LN cells = test: Flow cytometry of LN cell populations (Thy-1, CD4, CD8); type: in vivo, mice; details: regardless of dietary calcium or 1,25-(OH)2D3 treatment
Method: (§2) Lymphocytes. Axillary, brachial and inguinal lymph nodes (LN) from 6 mice were collected and pooled from control and 1,25-(OH)2D3 treated mice on d 21 post-immunization. Each experiment was repeated 3 times in its entirety. These LNs were chosen because they drained the site of immunization. Collected LN were disrupted manually using a 23 g needle and a pair of forceps. Total cell numbers in the LN were determined by counting the number of lymphocytes from control- and 1,25-(OH)2D3 treated mice and dividing by the number of mice in the group. Flow cytometry of fluorescent-labeled cell populations (Thy-1, class II, CD4 and CD8) were done on LN cells from control- and 1,25-(OH)2D3-treated mice using standard protocols and exactly as described (Smith, et al., 1987). For cytokine PCR analysis, LN cells were saved for total cellular RNA isolation.

[2] = test system: lymphocytes in the draining LN; details: in vivo treatments, literature (Cantorna 1998b); cited from earlier work
TGF-β1 mRNA [3] = test: TGF-β1 transcript analysis in LN by quantitative competitive PCR; type: in vivo; details: male mice with EAE, 100 ng daily, regardless of dietary calcium and number of cells in the LN
Method: (§3) Transcript analysis by quantitative competitive PCR. Cells for mRNA analysis were dissolved in acid guanidinium thiocyanate, and total RNA was isolated by the phenol chloroform extraction method (Chomczynski and Sacchi, 1987). Total cellular RNA was reverse-transcribed using oligo dT primers according to the manufacturer's protocols (Promega) and quantitated by competitive PCR. Primers and mimic DNA specific for glyceraldehyde-3-phosphate dehydrogenase (G3PDH), IL-4 and TGF-β1 were obtained from Clontech Laboratories, Inc. (Palo Alto, Calif.) (Siebert and Larrick, 1992; Siebert and Larrick, 1993). Competitive cDNA mimics which included the G3PDH, IL-4 and TGF-β1 primer sequences adjoining a neutral DNA segment, were serially diluted and added to test cDNA aliquots (Siebert and Larrick, 1992; Siebert and Larrick, 1993). The authentic product to mimic bp sizes were 983/600 for G3PDH, 306/544 for IL-4, and 525/390 for TGF-β1. The mixture was amplified under predetermined optimal conditions and the products were resolved by 1.5% agarose gel electrophoresis and ethidium bromide stained. […] The mimic DNA dilution that yielded a band with a fluorescence intensity that matched the cytokine band was used to calculate cytokine cDNA copy number. The G3PDH transcript quantitation served as a control for reverse transcription efficiency. […]

TNF-α = details: in vivo treatments, literature (Cantorna 1998b); cited from earlier work
[4] = test system: lymphocytes in the draining LN; test: Total cell numbers in the draining lymph nodes of mice with EAE; type: in vivo; details: male mice with EAE, 100 ng daily, d 21 post-immunization
Method: as §2

transplant rejection = details: literature (Bouillon 1995; Hullett 1998); cited from earlier work
IFN-γ = details: in vivo treatments, literature (Cantorna 1998b); cited from earlier work
TGF-β1 mRNA [5] = details: in vivo treatments, literature (Cantorna 1998b); cited from earlier work
[6] = Serum calcium by atomic absorption spectrometry; type: in vivo, mice; details: high dietary calcium, at EAE-preventing doses (6 ng/d females, 100 ng/d males)
Method: Serum calcium and 1,25-(OH)2D3 analysis. After 50 days the mice were killed, blood was collected by heart puncture and serum was collected following clot formation. Serum calcium concentrations were determined using a Perkin Elmer atomic absorption spectrometer exactly as described (Mohamed, et al., 1995). 1,25-(OH)2D3 analysis was done exactly as described (Arbour, et al., 1996).

IL-4 mRNA [7] = test: IL-4 transcript analysis in LN by quantitative competitive PCR; type: in vivo; details: male mice with EAE, 100 ng daily
Method: as §3

[8] = Body weight at end of the 50 d experiment; type: in vivo; details: male mice, end of 50 d experiment, mean ± SD
Text: as §1

IL-4 mRNA [9] = details: in vivo treatments, literature (Cantorna 1998b); cited from earlier work
G3PDH mRNA = test: G3PDH transcript analysis in LN by quantitative competitive PCR; type: in vivo; details: LN of male mice with EAE, 100 ng daily
Method: as §3

[10] = test system: experimental autoimmune encephalomyelitis (EAE) in B10.PL mice; details: literature (Cantorna 1996; Lemire and Archer 1991); cited from earlier work

C=C1/C(=C\C=C2/CCC[C@]3(C)[C@@H]([C@H](C)CCCC(C)(C)O)CC[C@@H]23)C[C@@H](O)C[C@@H]1O [1,25-(OH)2D3, 1α,25-dihydroxyvitamin D3]
reduction of the incidence of EAE ([1]; calcium removed from the diet): 50% | effectiveness in preventing EAE ([1]; diet containing high calcium, appropriate doses): 100% | prevention of EAE ([1]; females, at 200 ng/d): never completely prevented | incidence of EAE ([1]; females): 45% | dose at which EAE was completely prevented ([1]; females, 470 mg calcium/100 g diet (medium)): 200 ng/day | dose at which EAE was completely prevented ([1]; females, 1 g calcium/100 g diet (high)): 6 ng/day | drop in EAE incidence compared to mice not treated ([1]; low calcium diets, males and females): 40-45% | times more 1,25-(OH)2D3 needed to prevent EAE in males than females ([1]; high calcium intakes): 17 times | times more 1,25-(OH)2D3 needed to prevent EAE in males than females ([1]; overall): at least 4 times | prevention of EAE ([1]; males, at 800 ng/d): never completely prevented | incidence of EAE ([1]; males): 30% | dose at which EAE was completely prevented ([1]; males, 470 mg calcium/100 g diet (medium)): 400 ng/day | dose at which EAE was completely prevented ([1]; males, 1 g calcium/100 g diet (high)): 100 ng/day | overall symptoms of EAE (day of onset, paralysis scores) ([1]; treated mice, as the incidence dropped (data not shown)): decreased | development of experimental arthritis (experimental arthritis): prevent | CD4+ cells (LN cells): 40-44 % of the LN | CD8+ cells (LN cells): 18-21 % of the LN | Thy-1 positive cells (LN cells): 52-57 % of the LN | total number of lymphocytes [2]: net loss | TGF-β1 mRNA expression in LN (TGF-β1 mRNA [3]): high levels of TGF-β1 | TNF-α expression (TNF-α): no effect | total number of cells in the LN ([4]; low calcium diets): the same as controls | total number of cells in the LN ([4]; with addition of calcium to the diet): decreased dramatically | transplant rejection (transplant rejection): markedly inhibit transplant rejection | IFN-γ expression (IFN-γ): no effect | expression of TGF-β1 (TGF-β1 mRNA [5]): net increase | serum calcium [6]: elevated | IL4 production (mRNA in LN) (IL-4 mRNA [7]; low calcium diets): not different from controls | amount of IL-4 produced (mRNA in LN) (IL-4 mRNA [7]; medium to high calcium diets): increased as the calcium in the diet increased | Weight ([8]; dietary calcium 20 mg/100 g, high dose 800 ng/day): 13 ± 3 g | Weight ([8]; dietary calcium 20 mg/100 g, intermediate dose 40-500 ng/d): 27 ± 2 g | Weight ([8]; dietary calcium 470 mg/100 g, high dose 400 ng/day): 17 ± 3 g | Weight ([8]; dietary calcium 470 mg/100 g, intermediate dose 50-200 ng/d): 23 ± 2 g | Weight ([8]; dietary calcium 1 g/100 g, high dose 100-400 ng/day): 15 ± 1 g | Weight ([8]; dietary calcium 1 g/100 g, intermediate dose 10-50 ng/d): 25 ± 2 g | expression of IL-4 (IL-4 mRNA [9]): net increase | G3PDH mRNA expression (G3PDH mRNA): no effect | development of EAE [10]: prevent the development of EAE
